Numbered stars: 1 amine (or outer) side, 2 acyl side, 3 side chain; on linkers, the order of the positions; unused ones are H or OH. Bridge positions count the residues as written; N and C are the ends. Side chains are listed from the residue outwards. Peptide text beside a SMILES is read from it. * marks the point of attachment. C20 diacid = O=C(O)CCCCCCCCCCCCCCCCCCC(=O)*; γGlu = O=C(O)[C@H](CCC(=O)[*:2])N[*:1]; AEEA = NCCOCCOCC(=O)O
Assays:
[1] = target: T1, human amylin receptor (amylin 3(a) receptor: human calcitonin receptor + RAMP-3) (Homo sapiens, UniProt O60896+P30988); test: Assay (II)a functional assay, human amylin receptor (CRE luciferase, BHK cells); format: cell-based
T1 construct: expressed in transfected cells
T1 sequence (P30988 25-474): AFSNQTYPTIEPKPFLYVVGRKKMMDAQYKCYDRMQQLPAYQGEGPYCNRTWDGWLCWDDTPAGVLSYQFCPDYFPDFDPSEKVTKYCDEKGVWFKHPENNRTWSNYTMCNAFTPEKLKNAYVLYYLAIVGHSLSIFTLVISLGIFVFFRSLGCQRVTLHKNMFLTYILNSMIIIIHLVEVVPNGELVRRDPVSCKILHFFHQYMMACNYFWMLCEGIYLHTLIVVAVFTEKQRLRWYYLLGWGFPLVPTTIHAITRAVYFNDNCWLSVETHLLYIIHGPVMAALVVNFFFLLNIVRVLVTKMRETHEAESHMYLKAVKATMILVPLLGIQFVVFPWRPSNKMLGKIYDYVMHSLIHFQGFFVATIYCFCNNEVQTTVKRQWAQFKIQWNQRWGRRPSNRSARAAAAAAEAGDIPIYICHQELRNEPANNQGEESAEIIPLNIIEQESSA
T1 sequence (O60896 24-148 partner): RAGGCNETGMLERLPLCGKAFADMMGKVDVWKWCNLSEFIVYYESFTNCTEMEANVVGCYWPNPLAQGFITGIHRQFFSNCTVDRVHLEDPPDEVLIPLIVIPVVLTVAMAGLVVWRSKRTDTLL
Experimental: Assay (II)—Functional Assays
Consequently, transcription is activated by promoters containing multiple copies of the cAMP response element (CRE).
The cell line was further transfected with RAMP-3, using standard methods.
After incubation overnight at 37° C. and 5% CO2, the growth medium was replaced by 50 μl/well assay medium (DMEM (without phenol red), Glutamax™, 10% FBS, and 10 mM Hepes, pH 7.4). Further, 50 μl/well of standard or sample in assay buffer were added. After 3 hours incubation at 37° C. and 5% CO2, the assay medium with standard or sample were removed and replaced by 100 μl/well PBS. Further, 100 μl/well LucLite™ was added. The plates were sealed and incubated at room temperature for 30 minutes. Finally, luminescence was measured on a TopCounter (Packard) in SPC (single photon counting) mode.

[2] = target: T2, human amylin receptor (Homo sapiens, UniProt O60896+P30988); test: Assay (V) binding to the human amylin receptor (SPA, 125I-rat amylin); details: human amylin receptor membranes, SPA; read-out: hAmylin-R bind IC50
T2 construct: expressed in transfected cells
T2 sequence (P30988 25-474): T1 sequence (P30988 25-474)
T2 sequence (O60896 24-148 partner): T1 sequence (O60896 24-148 partner)
Procedure, shortened: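 SPA competition binding on membranes from Amylin 3(a)/CRE-luc cells, 35 ng/μL membranes with 0.05 mg/well beads. Buffer 50 mM Hepes pH 7.4, 1 mM CaCl2, 5 mM MgCl2, 0.1% OA, 0.02% Tween20. IC50 from one-site competition fit as affinity measure.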

[3] = Assay (III) ThT fibrillation assay for physical stability; format: physicochemical
Excerpt: Assay (III)—ThT Fibrillation Assays for the Assessment of Physical Stability of Protein Formulations Low physical stability of a polypeptide may lead to amyloid fibril formation, which is observed as well-ordered, thread-like macromolecular structures in the sample eventually resulting in gel formation. This has traditionally been measured by visual inspection of the sample. However, that kind of measurement is very subjective and depending on the observer. Therefore, the application of a small molecule indicator probe is much more advantageous. Thioflavin T (ThT) is such a probe and has a distinct fluorescence signature when binding to fibrils [Naiki et al. (1989) Anal. […] LeVine (1999) Methods. Enzymol. […], 274-284]. The time course for fibril formation can be described by a sigmoidal curve with the following expression [Nielsen et al. (2001) Biochemistry 40, 6036-6046]: […] Here, F is the ThT fluorescence at the time t. The constant t0 is the time needed to reach 50% of maximum fluorescence. […] Incubation and Fluorescence Measurement Incubation at given temperature, shaking and measurement of the ThT fluorescence emission were done in a Fluoroskan Ascent FL fluorescence platereader or Varioskan platereader (Thermo Labsystems). […] Fluorescence measurement was done using excitation through a 444 nm filter and measurement of emission through a 485 nm filter. […] The plate was measured every 20 minutes for a desired period of time. […] However, since full sigmodial curves in this case are not always achieved during the measurement time, the degree of fibrillation is expressed as ThT fluorescence tabulated as the mean of the samples and shown with the standard deviation at various time points. Measurement of Initial and Final Concentrations The polypeptide concentration in each of the tested formulations were measured both before application in the ThT fibrillation assay (“Initial”) and after completion of the ThT fibrillation (“After ThT assay”). Concentrations were determined by reverse HPLC methods using a pramlintide standard as a reference. […]

[4] = target: T3, human calcitonin receptor (Homo sapiens, UniProt P30988); test: Assay (VII) binding to the human calcitonin receptor (SPA, 125I-Calcitonin); details: read-out: hCTR bind IC50;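 further: cell membranes coupled to SPA beads, competitive displacement read by scintillation counting, IC50 derived from a one-site competition fit as a measure of receptor affinity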
T3 construct: expressed in transfected cells
T3 sequence (P30988 25-474): T1 sequence (P30988 25-474)
Experimental: Membranes were prepared in the following way; the cells were rinsed with PBS and incubated with Versene for approximately 5 min before harvesting. The cells were flushed with PBS and the cell-suspension was centrifuged for 5 min at 1000 rpm. […] The resulting pellet was resuspended in buffer 2 and protein concentration was measured (BCA protein Assay, Pierce). The homogenate was kept cold during the whole procedure. The membranes were kept at −80° C. until use. Assay was performed in a 384 well Optiplate (PerkinElmer) in a total volume of 40 ul. Membranes were mixed with SPA beads. Final concentration of membranes 35 ng/μL final and Final concentration of SPA beads was 0.05 mg/well. Test-compounds were dissolved in DMSO and further diluted in assay buffer (50 mM Hepes, pH 7.4, 1 mM CaCl2, 5 mM MgCl2, 0.1% OA and 0.02% Tween20). […] Samples were analyzed on TopCounter™ (Packard). The IC50 was calculated using (one site binding competition analysis) GraphPad Prism5 as a measure of receptor affinity.

[5] = target: T3, human calcitonin receptor; test: Assay (II)a functional assay, human calcitonin receptor (CRE luciferase, BHK cells);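 further: luminescence from a CRE-driven luciferase reporter, read by single photon counting after cells were exposed to test samples for 3 h at 37 °C under 5% CO2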; format: cell-based; details: read-out: hCTR funct. EC50

Compound | EC50 ([1]; functional assay, human amylin receptor, read-out: hAmylin-R funct. EC50) [nM] | IC50 [2] [nM] | ThT pH 4.0 recovery (%) [3] [%] | IC50 [4] [nM] | EC50 [5] [nM] | Ratio hCT/hAmylin funct. ([1]; Table 6, human functional selectivity (hCTR EC50 / hAmylin-R EC50))
CC[C@H](C)[C@H](NC(=O)[C@H](C)NC(=O)CNC(=O)[C@H](Cc1ccccc1)NC(=O)[C@H](CC(N)=O)NC(=O)[C@@H]1CCCN1C(=O)[C@H](CO)NC(=O)[C@H](CO)NC(=O)[C@H](Cc1c[nH]cn1)NC(=O)[C@H](CCCNC(=N)N)NC(=O)[C@H](CC(C)C)NC(=O)[C@H](Cc1ccccc1)NC(=O)[C@H](CO)NC(=O)[C@H](C)NC(=O)[C@H](CC(C)C)NC(=O)[C@H](CCCNC(=N)N)NC(=O)[C@H](CCC(N)=O)NC(=O)[C@@H](NC(=O)[C@H](C)NC(=O)[C@@H]1CSSC[C@H](NC(=O)[C@@H](N)CCCCNC(=O)COCCOCCNC(=O)CC[C@H](NC(=O)CCCCCCCCCCCCCCCCCCC(=O)O)C(=O)O)C(=O)N[C@@H](CC(N)=O)C(=O)N[C@@H]([C@@H](C)O)C(=O)N[C@@H](C)C(=O)N[C@@H]([C@@H](C)O)C(=O)N1)[C@@H](C)O)C(=O)N1CCC[C@H]1C(=O)N[C@@H](CO)C(=O)N[C@@H](CO)C(=O)N[C@H](C(=O)N1CCC[C@H]1C(=O)N[C@H](C(=O)NCC(=O)N[C@@H](CO)C(=O)N[C@@H](CC(N)=O)C(=O)N[C@H](C(=O)N[C@@H](Cc1ccc(O)cc1)C(N)=O)[C@@H](C)O)C(C)C)[C@@H](C)O [Example 73] (H-K([AEEA-γGlu-C20 diacid])CNTATCATQRLASFLRHSSPNFGAIPSSTPVGSNTY-NH2; disulfide 2-7) | 0.085 | 0.104 | 1 | 5.38 | 0.961 | 
CC[C@H](C)[C@H](NC(=O)[C@H](C)NC(=O)CNC(=O)[C@H](Cc1ccccc1)NC(=O)[C@H](CC(N)=O)NC(=O)[C@@H]1CCCN1C(=O)[C@H](CO)NC(=O)[C@H](CO)NC(=O)[C@H](Cc1c[nH]cn1)NC(=O)[C@H](CCCNC(=N)N)NC(=O)[C@H](CC(C)C)NC(=O)[C@H](Cc1ccccc1)NC(=O)[C@H](CCCCN)NC(=O)[C@H](C)NC(=O)[C@H](CC(C)C)NC(=O)[C@H](CCCNC(=N)N)NC(=O)[C@H](CCC(N)=O)NC(=O)[C@@H](NC(=O)[C@H](C)NC(=O)[C@@H]1CSSC[C@H](NC(=O)[C@@H](N)CCCCNC(=O)COCCOCCNC(=O)CC[C@H](NC(=O)CCCCCCCCCCCCCCCCCCC(=O)O)C(=O)O)C(=O)N[C@@H](CC(N)=O)C(=O)N[C@@H]([C@@H](C)O)C(=O)N[C@@H](C)C(=O)N[C@@H]([C@@H](C)O)C(=O)N1)[C@@H](C)O)C(=O)N1CCC[C@H]1C(=O)N[C@@H](CO)C(=O)N[C@@H](CO)C(=O)N[C@H](C(=O)N1CCC[C@H]1C(=O)N[C@H](C(=O)NCC(=O)N[C@@H](CO)C(=O)N[C@@H](CC(N)=O)C(=O)N[C@H](C(=O)N[C@@H](Cc1ccc(O)cc1)C(N)=O)[C@@H](C)O)C(C)C)[C@@H](C)O [Example 74] (H-K([AEEA-γGlu-C20 diacid])CNTATCATQRLAKFLRHSSPNFGAIPSSTPVGSNTY-NH2; disulfide 2-7 (inferred); N-terminus and C-terminus assumed) |  |  | 87 |  |  | 
CC[C@H](C)[C@H](NC(=O)[C@H](C)NC(=O)CNC(=O)[C@H](Cc1ccccc1)NC(=O)[C@H](CC(N)=O)NC(=O)[C@@H]1CCCN1C(=O)[C@H](CO)NC(=O)[C@H](CO)NC(=O)[C@H](Cc1c[nH]cn1)NC(=O)[C@H](CCCNC(=N)N)NC(=O)[C@H](CC(C)C)NC(=O)[C@H](Cc1ccccc1)NC(=O)[C@H](C)NC(=O)[C@H](C)NC(=O)[C@H](CC(C)C)NC(=O)[C@H](CCCNC(=N)N)NC(=O)[C@H](CCC(N)=O)NC(=O)[C@@H](NC(=O)[C@H](C)NC(=O)[C@@H]1CSSC[C@H](NC(=O)[C@H](CCCNC(=N)N)NC(=O)CNC(=O)CC[C@H](NC(=O)CCCCCCCCCCCCCCCCCCC(=O)O)C(=O)O)C(=O)N[C@@H](CC(N)=O)C(=O)N[C@@H]([C@@H](C)O)C(=O)N[C@@H](C)C(=O)N[C@@H]([C@@H](C)O)C(=O)N1)[C@@H](C)O)C(=O)N1CCC[C@H]1C(=O)N[C@@H](CO)C(=O)N[C@@H](CO)C(=O)N[C@H](C(=O)N[C@@H](CC(N)=O)C(=O)N[C@H](C(=O)NCC(=O)N1CCC[C@H]1C(=O)N[C@@H](CC(N)=O)C(=O)N[C@H](C(=O)N[C@@H](Cc1ccc(O)cc1)C(N)=O)[C@@H](C)O)C(C)C)[C@@H](C)O [Example 103] ({C20 diacid-γGlu}-GRCNTATCATQRLAAFLRHSSPNFGAIPSSTNVGPNTY-NH2; disulfide 3-8 (inferred); C-terminus assumed) |  |  | 82 |  |  | 2.1

— patent US8575091B1, “Amylin analogues and pharmaceutical compositions thereof” (Novo Nordisk A/S, priority 2012, dated 2013)
